According to patent US5998362A, “Conjugates useful in the treatment of prostate cancer” (priority 1997, dated 1999):
Where a SMILES comes first, the peptide text is derived from it. [ ]: non-standard residue; d: D form. The star is where a group is joined. X2 = COCCOCCOCCOCCOCCOCCOCCOCCOCCOCCOCCOCCOCCOCCOCCOCCOCC(=O)*; X5 = COCCOCCOCCOCCOCCOCCOCCOCCOCCOCCOCCOCCOCCOCCOCCOCC(=O)*; X6 = COCCOCCOCCOCCOCCOCCOCCOCCOCCOCCOCCOCCOCCOCCOCC(=O)*; Decanoyl(3,6,9-trioxa) = COCCOCCOCC(=O)*; Glyceroyl(2S) = O=C([C@@H](O)CO)*; Glyceroyl(2R) = O=C([C@H](O)CO)*; hArg = N=C(N)NCCCC[C@H](N)C(=O)O; 3Pal = N[C@@H](Cc1cccnc1)C(=O)O; MeOCH2CH2OCH2CO = COCCOCC(=O)*; X4 = O=C([C@H](O)[C@@H](O)CO)*; Chg = N[C@H](C(=O)O)C1CCCCC1; Nle = CCCC[C@H](N)C(=O)O; Glycolyl = O=C(CO)*

target: free PSA (Homo sapiens, UniProt P07288); assay: Recognition of oligopeptides by free PSA (time to 50% cleavage, HPLC); conditions: Table 2, oligopeptides; 4 hours
Sequence (P07288 25-261): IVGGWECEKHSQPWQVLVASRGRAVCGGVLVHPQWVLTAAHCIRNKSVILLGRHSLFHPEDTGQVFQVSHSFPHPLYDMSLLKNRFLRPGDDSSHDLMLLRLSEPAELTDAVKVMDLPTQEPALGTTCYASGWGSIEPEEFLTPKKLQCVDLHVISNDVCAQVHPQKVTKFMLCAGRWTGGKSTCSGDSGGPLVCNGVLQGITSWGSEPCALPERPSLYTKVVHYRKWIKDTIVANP
Procedure: The oligopeptides prepared as described in Example 1 were individually dissolved in PSA digestion buffer (12 mM tris(hydroxymethyl)-aminomethane pH8.0, 25 mM NaCl, 0.5 mM CaCl2) and the solution added to PSA at a molar ration of 100 to 1. The reaction is quenched after various reaction times by the addition of trifluoroacetic acid (TFA) to a final 1% (volume/volume). The quenched reaction was analyzed by HPLC on a reversed-phase C18 column using an aqueous 0.1% TFA/acetonitrile gradient. […] Oligopeptides containing free amine moieties (ie. comprising hArg, Orn, Lys and or 3PAL) were tested as TFA salts. All other oligopeptides were tested as neutral compounds.

In the case of CC(C)C[C@H](NC(=O)[C@H](CO)NC(=O)[C@H](CCC(N)=O)NC(=O)[C@@H](NC(=O)[C@H](CCCCNC(=N)N)NC(=O)[C@@H](N)CO)C1CCCCC1)C(=O)O [ShRChgQ-SL -acid] (H-S[hArg][Chg]QSL-OH), the “Substrate cleavage by York PSA at 4 HOUR” value is reported as 8%.

same assay, conditions: Table 2, oligopeptides; PSA digestion buffer 12 mM Tris pH8.0, 25 mM NaCl, 0.5 mM CaCl2; substrate:PSA 100 to 1

In order of rising “Time to 50% Substrate Cleavage by York PSA” value:
1. COCCOCCOCCOCCOCCOCCOCCOCCOCCOCCOCCOCCOCCOCCOCCOCCOCCOCC(=O)N[C@@H](CO)C(=O)N[C@@H](CCCCNC(=N)N)C(=O)N[C@@H](Cc1ccc(O)cc1)C(=O)N[C@@H](CCC(N)=O)C(=O)N[C@@H](CO)C(=O)N[C@@H](CC(C)C)C(=O)O [PEG(17)-ShRYQ-SL-acid]  55 min
2. PEG(4)-β-PAL-SSChgQ-SL-acid  60 min
3. CC(C)C[C@H](NC(=O)[C@H](CO)NC(=O)[C@H](CCC(N)=O)NC(=O)[C@@H](NC(=O)[C@H](CO)NC(=O)[C@H](CO)NC(=O)[C@H](CO)NC(=O)[C@@H](O)CO)C1CCCCC1)C(=O)O [(I)2,3-dihydroxypropionyl-SSSChgQ-SL-acid] ({Glyceroyl(2S)}-SSS[Chg]QSL-OH)  110 min

same assay, conditions: Table 2, oligopeptides; abbreviations not defined

For CCCC[C@H](NC(=O)[C@H](CO)NC(=O)[C@H](CCC(N)=O)NC(=O)[C@@H](NC(=O)[C@H](CCCCNC(=N)N)NC(=O)[C@H](CO)NC(C)=O)C1CCCCC1)C(=O)O [Ac-ShRChgQ-SNle-acid] (Ac-S[hArg][Chg]QS[Nle]-OH), the “Solubility remark in the cleavage column (INSOLUBLE / PS / PP)” value was “INSOLUBLE”.

same assay, conditions: free psa

In order of falling “Time to 50% Substrate Cleavage by York PSA (Min), values marked *” value:
1. COCCOCC(=O)N[C@@H](CO)C(=O)N[C@@H](CCCCNC(=N)N)C(=O)N[C@H](C(=O)N[C@@H](CCC(N)=O)C(=O)N[C@@H](CO)C(=O)N[C@@H](CC(C)C)C(=O)O)C1CCCCC1 [PEG(1)-ShRChgQ-SL-acid] (MeOCH2CH2OCH2CO-S[hArg][Chg]QSL-OH)  120 min
2. CC(C)C[C@H](NC(=O)[C@H](CO)NC(=O)[C@H](CCC(N)=O)NC(=O)[C@H](Cc1ccc(O)cc1)NC(=O)[C@H](CCCCNC(=N)N)NC(=O)CO)C(=O)O [2-hydroxyacetylhRYQ-SL-acid] (Glycolyl-[hArg]YQSL-OH)  105 min
3. CC(=O)N[C@@H](CCCCNC(=N)N)C(=O)N[C@@H](CO)C(=O)N[C@@H](CO)C(=O)N[C@H](C(=O)N[C@@H](CCC(N)=O)C(=O)N[C@@H](CO)C(=O)N[C@@H](CC(C)C)C(=O)O)C1CCCCC1 [AChRSSChgQ-SL-acid] (Ac-[hArg]SS[Chg]QSL-OH)  45 min
4. COCCOCCOCC(=O)N[C@@H](CCCCNC(=N)N)C(=O)N[C@@H](CO)C(=O)N[C@@H](CO)C(=O)N[C@H](C(=O)N[C@@H](CCC(N)=O)C(=O)N[C@@H](CO)C(=O)N[C@@H](CC(C)C)C(=O)O)C1CCCCC1 [PEG(2)-hRSSChgQ-SL-acid] ({Decanoyl(3,6,9-trioxa)}-[hArg]SS[Chg]QSL-OH)  40 min
5. COCCOCCOCC(=O)N[C@@H](CO)C(=O)N[C@@H](CCCCNC(=N)N)C(=O)N[C@@H](Cc1ccc(O)cc1)C(=O)N[C@@H](CCC(N)=O)C(=O)N[C@@H](CO)C(=O)N[C@@H](CC(C)C)C(=O)O [PEG(2)-ShRYQ-SL-acid] ({Decanoyl(3,6,9-trioxa)}-S[hArg]YQSL-OH)  35 min

same assay, conditions: free psa, pH 8

In order of rising “Time to 50% Substrate Cleavage by York PSA” value:
1. COCCOCC(=O)N[C@@H](CCCCNC(=N)N)C(=O)N[C@@H](CO)C(=O)N[C@@H](CO)C(=O)N[C@H](C(=O)N[C@@H](CCC(N)=O)C(=O)N[C@@H](CO)C(=O)N[C@@H](CC(C)C)C(=O)O)C1CCCCC1 [PEG(1)-hRSSChgQ-SL-acid] (MeOCH2CH2OCH2CO-[hArg]SS[Chg]QSL-OH)  30 min
2. COCCOCCOCC(=O)N[C@@H](CO)C(=O)N[C@@H](CCCCNC(=N)N)C(=O)N[C@H](C(=O)N[C@@H](CCC(N)=O)C(=O)N[C@@H](CO)C(=O)N[C@@H](CC(C)C)C(=O)O)C1CCCCC1 [PEG(2)-S-hRChgQ-SL-acid] ({Decanoyl(3,6,9-trioxa)}-S[hArg][Chg]QSL-OH)  30 min
3. COCCOCCOCCOCCOCCOCCOCCOCCOCCOCCOCCOCCOCCOCCOCC(=O)N[C@@H](CO)C(=O)N[C@@H](CCCCNC(=N)N)C(=O)N[C@@H](Cc1ccc(O)cc1)C(=O)N[C@@H](CCC(N)=O)C(=O)N[C@@H](CO)C(=O)N[C@@H](CC(C)C)C(=O)O [PEG(14)ShRYQ-SL-acid] (X6-S[hArg]YQSL-OH)  40 min
4. COCCOCCOCCOCCOCCOCCOCCOCCOCCOCCOCCOCCOCCOCCOCCOCC(=O)N[C@@H](CO)C(=O)N[C@@H](CCCCNC(=N)N)C(=O)N[C@@H](Cc1ccc(O)cc1)C(=O)N[C@@H](CCC(N)=O)C(=O)N[C@@H](CO)C(=O)N[C@@H](CC(C)C)C(=O)O [PEG(15)-ShRYQ-SL-acid] (X5-S[hArg]YQSL-OH)  40 min
5. COCCOCCOCCOCCOCCOCCOCCOCCOCCOCCOCCOCCOCCOCCOCCOCCOCC(=O)N[C@@H](CO)C(=O)N[C@@H](CCCCNC(=N)N)C(=O)N[C@@H](Cc1ccc(O)cc1)C(=O)N[C@@H](CCC(N)=O)C(=O)N[C@@H](CO)C(=O)N[C@@H](CC(C)C)C(=O)O [PEG(16)-ShRYQ-SL-acid] (X2-S[hArg]YQSL-OH)  40 min
6. COCCOCCOCCOCCOCCOCCOCCOCCOCCOCCOCCOCCOCCOCCOCCOCCOCCOCCOCC(=O)N[C@@H](CO)C(=O)N[C@@H](CCCCNC(=N)N)C(=O)N[C@@H](Cc1ccc(O)cc1)C(=O)N[C@@H](CCC(N)=O)C(=O)N[C@@H](CO)C(=O)N[C@@H](CC(C)C)C(=O)O [PEG(18)ShRYQ-SL-acid]  40 min
7. CC(=O)N[C@@H](CCCCNC(=N)N)C(=O)N[C@@H](C)C(=O)N[C@@H](CO)C(=O)N[C@H](C(=O)N[C@@H](CCC(N)=O)C(=O)N[C@@H](CO)C(=O)N[C@@H](CC(C)C)C(=O)O)C1CCCCC1 [Ac-hRASChgQ-SL-acid] (Ac-[hArg]AS[Chg]QSL-OH)  50 min
8. COCCOCCOCCOCCOCCOCCOCCOCCOCCOCCOCCOCCOCCOCCOCCOCCOCCOCCOCCOCC(=O)N[C@@H](CO)C(=O)N[C@@H](CCCCNC(=N)N)C(=O)N[C@@H](Cc1ccc(O)cc1)C(=O)N[C@@H](CCC(N)=O)C(=O)N[C@@H](CO)C(=O)N[C@@H](CC(C)C)C(=O)O [PEG(19)ShRYQ-SL-acid]  60 min
9. CC(C)C[C@H](NC(=O)[C@H](CO)NC(=O)[C@H](CCC(N)=O)NC(=O)[C@@H](NC(=O)[C@H](CO)NC(=O)[C@H](CO)NC(=O)[C@H](Cc1cccnc1)NC(=O)[C@@H](O)CO)C1CCCCC1)C(=O)O [(I)2,3-dihydroxypropionyl-3PAL-SSChgQ-SL-acid] ({Glyceroyl(2S)}-[3Pal]SS[Chg]QSL-OH)  70 min
10. CC(C)C[C@H](NC(=O)[C@H](CO)NC(=O)[C@H](CCC(N)=O)NC(=O)[C@@H](NC(=O)[C@H](CO)NC(=O)[C@H](CO)NC(=O)[C@H](CO)NC(=O)[C@@H](O)CO)C1CCCCC1)C(=O)O [(I)2,3-dihydroxypropionyl-SSSChgQ-SL-acid] ({Glyceroyl(2S)}-SSS[Chg]QSL-OH)  80 min
11. CC(C)C[C@H](NC(=O)[C@H](CO)NC(=O)[C@H](CCC(N)=O)NC(=O)[C@@H](NC(=O)[C@H](CO)NC(=O)[C@H](CO)NC(=O)[C@H](Cc1cccnc1)NC(=O)[C@H](O)CO)C1CCCCC1)C(=O)O [(d)2,3-dihydroxypropionyl-3PAL-SSChgQSL-acid] ({Glyceroyl(2R)}-[3Pal]SS[Chg]QSL-OH)  80 min
12. COCCOCCOCC(=O)N[C@@H](Cc1cccnc1)C(=O)N[C@@H](CO)C(=O)N[C@@H](CO)C(=O)N[C@H](C(=O)N[C@@H](CCC(N)=O)C(=O)N[C@@H](CO)C(=O)N[C@@H](CC(C)C)C(=O)O)C1CCCCC1 [PEG(2)-3PAL-SSChgQ-SL-acid] ({Decanoyl(3,6,9-trioxa)}-[3Pal]SS[Chg]QSL-OH)  80 min
13. CC(C)C[C@H](NC(=O)[C@H](CO)NC(=O)[C@H](CCC(N)=O)NC(=O)[C@@H](NC(=O)[C@H](CCCCNC(=N)N)NC(=O)[C@H](CO)NC(=O)[C@H](O)[C@@H](O)CO)C1CCCCC1)C(=O)O [(2R,3S)2,3,4-trihydroxybutanoyl-ShRChgQ-SL-acid] (X4-S[hArg][Chg]QSL-OH)  90 min
14. COCCOCC(=O)N[C@@H](CO)C(=O)N[C@@H](CCCCNC(=N)N)C(=O)N[C@@H](Cc1ccc(O)cc1)C(=O)N[C@@H](CCC(N)=O)C(=O)N[C@@H](CO)C(=O)N[C@@H](CC(C)C)C(=O)O [PEG(1)-ShRYQ-SL-acid] (MeOCH2CH2OCH2CO-S[hArg]YQSL-OH)  90 min
15. CC(C)C[C@H](NC(=O)[C@H](CO)NC(=O)[C@H](CCC(N)=O)NC(=O)[C@@H](NC(=O)[C@H](CO)NC(=O)[C@H](CO)NC(=O)[C@H](CO)NC(=O)CO)C1CCCCC1)C(=O)O [(OH-Ac)SSSChgQ-SL-acid] (Glycolyl-SSS[Chg]QSL-OH)  120 min
16. CC(=O)N[C@@H](CCCCNC(=N)N)C(=O)N[C@@H](CO)C(=O)N[C@@H](CO)C(=O)N[C@H](C(=O)N[C@@H](CCC(N)=O)C(=O)N[C@@H](CO)C(=O)N[C@@H](CC(C)C)C(=O)O)C1CCCCC1 [AChRSSChgQ-SL-acid] (Ac-[hArg]SS[Chg]QSL-OH)  120 min
17. COCCOCCOCC(=O)N[C@@H](CO)C(=O)N[C@@H](CO)C(=O)N[C@@H](Cc1ccc(O)cc1)C(=O)N[C@@H](CCC(N)=O)C(=O)N[C@@H](CO)C(=O)N[C@@H](CC(C)C)C(=O)O [PEG(2)-SSYQ-SL-acid] ({Decanoyl(3,6,9-trioxa)}-SSYQSL-OH)  150 min
18. COCCOCCOCC(=O)N[C@@H](CO)C(=O)N[C@@H](CO)C(=O)N[C@@H](CO)C(=O)N[C@H](C(=O)N[C@@H](CCC(N)=O)C(=O)N[C@@H](CO)C(=O)N[C@@H](CC(C)C)C(=O)O)C1CCCCC1 [PEG(2)SSSChgQ-SL-acid] ({Decanoyl(3,6,9-trioxa)}-SSS[Chg]QSL-OH)  150 min
19. CC(C)C[C@H](NC(=O)[C@H](CO)NC(=O)[C@H](CCC(N)=O)NC(=O)[C@@H](NC(=O)[C@H](CO)NC(=O)[C@H](CO)NC(=O)[C@@H](O)CO)C1CCCCC1)C(=O)O [(I)2,3-dihydroxypropionyl-SSChgQ-SL-acid] ({Glyceroyl(2S)}-SS[Chg]QSL-OH)  180 min
